Here are results for eight compounds from patent publication US20200298233A1, “MICROFLUIDIC PAPER CHIP FOR DETECTING MICRO-ORGANISM, METHOD FOR PREPARING THE SAME AND METHOD FOR DETECTING MICRO-ORGANISM USING THE SAME” (BIOMAX CO., LTD., priority 2017, published 2020).

For test [1], the system named is Vibrio vulnificus. Description: Coloring reaction test of chromogenic reagents, 96 well plate. The test is classed as biochemical. As to conditions: chromogenic reagent terminal concentration 10 mM, 30 minutes at 37° C.
Test [2] deals with Salmonella spp. The description is as above. To be noted: chromogenic reagent terminal concentration 10 mM, 30 minutes at 37° C. The format is biochemical.
The test system of test [3] is Staphylococcus aureus. Described as above. The format is biochemical. As to conditions: chromogenic reagent terminal concentration 10 mM, 30 minutes at 37° C.
The subject of the next test is Esherichia coli O157. Put plainly: Bacterial lysis efficacy by measuring optical density (OD). The format is cell-based, Escherichia coli O157. To be noted: initial O.D = 0.8139.
For a further test, the system named is Listeria monocytogenes. Described as above. The format is cell-based. As to conditions: initial O.D = 0.8336.
The subject of test [4] is Staphylococcus aureus. Described as above. The format is cell-based. As to conditions: initial O.D = 1.1877.
In test [5] the test system is Salmonella spp. Described as above. To be noted: initial O.D = 1.4448.
Test [6] has as its system Vibrio vulnificus. Described as above. As to conditions: initial O.D = 0.6143.

Where “and” joins values, the source holds several entries; their conditions need not be identical. Identical values can stand only once.

Consider `OC[C@H]1O[C@H](Oc2c[nH]c3cc(Cl)ccc23)[C@H](O)[C@@H](O)[C@@H]1O` [Salmon-alpha-glucospyranoside, 6-Chloro-3-indoxyl-alpha-D-glucopyranoside], for which the coloring reaction entry with Vibrio vulnificus [1] was “unique coloring reaction”; in the test on Salmonella spp. [2], “unique and strong coloring reaction”; in the test with Staphylococcus aureus [3], “unique coloring reaction”.
For the compound `O=P([O-])([O-])Oc1c[nH]c2ccc(Br)c(Cl)c12.[Na+].[Na+]` [X-phosphate, 5-Bromo-4-chloro-3-indoxyl phosphate, disodium salt], the coloring reaction entry with Salmonella spp. [2] was “unique and strong coloring reaction”; in the test on Staphylococcus aureus [3], “unique coloring reaction”.
On to `CCCCCCCCCCCC[N+](C)(C)CCCS(=O)(=O)[O-]` [SB3-10, 3-(Dodecyldimethylammonio)propane-1-sulfonate], for which the Optical density is 0.5979 and 0.5907 and 0.5816 in the test with Esherichia coli O157 (detergent 0.1%); 0.6803 and 0.6818 and 0.6832 with Esherichia coli O157 (detergent 0.5%); 0.5228 and 0.5223 and 0.5253 with Esherichia coli O157 (detergent 1%); 0.5845 and 0.5861 and 0.5779 with Esherichia coli O157 (detergent 2%); 0.6355 and 0.6371 and 0.6311 in the test with Esherichia coli O157 (detergent 3%); 0.8160 and 0.8061 and 0.8134 in the test on Esherichia coli O157 (detergent 5%). Also, the Optical density is 0.7689 and 0.8003 and 0.7683 in the test on Listeria monocytogenes (detergent 0.1%); 0.7694 and 0.7802 and 0.7866 in the test with Listeria monocytogenes (detergent 0.5%); 0.7935 and 0.7994 and 0.8055 in the test on Listeria monocytogenes (detergent 1%); 0.7242 and 0.7341 and 0.7357 with Listeria monocytogenes (detergent 2%); 0.6917 and 0.7252 and 0.7227 with Listeria monocytogenes (detergent 3%); 0.8414 and 0.8448 and 0.8431 in the test on Listeria monocytogenes (detergent 5%). Moreover, the Optical density is 0.9335 and 0.9313 and 0.9293 in the test on Staphylococcus aureus [4] (detergent 0.1%); 0.9517 and 0.9486 and 0.9454 in the test on Staphylococcus aureus [4] (detergent 0.5%); 0.8872 and 0.8856 and 0.8847 in the test with Staphylococcus aureus [4] (detergent 1%); 0.8495 and 0.8478 and 0.8480 in the test on Staphylococcus aureus [4] (detergent 2%); 0.5582 and 0.5458 and 0.5385 in the test with Staphylococcus aureus [4] (detergent 3%); 0.8456 and 0.8446 and 0.8442 in the test with Staphylococcus aureus [4] (detergent 5%). Moreover, the Optical density was 0.9125 and 0.9111 and 0.9138 with Salmonella spp. [5] (detergent 0.1%); 0.4241 and 0.4359 with Salmonella spp. [5] (detergent 0.5%); 0.4611 and 0.4597 and 0.4705 with Salmonella spp. [5] (detergent 1%); 0.4310 and 0.4345 in the test with Salmonella spp. [5] (detergent 2%); 0.4184 and 0.4186 and 0.4199 with Salmonella spp. [5] (detergent 3%); 0.9464 and 0.9488 and 0.9479 with Salmonella spp. [5] (detergent 5%). Also, the Optical density in the test on Vibrio vulnificus [6] (detergent 0.1%) was 0.3351 and 0.3199 and 0.3176; in the test with Vibrio vulnificus [6] (detergent 0.5%), 0.2124 and 0.2149 and 0.2105; in the test with Vibrio vulnificus [6] (detergent 1%) it was 0.1822 and 0.1758 and 0.1891; in the test on Vibrio vulnificus [6] (detergent 2%), 0.1627 and 0.1647 and 0.1624; in the test with Vibrio vulnificus [6] (detergent 3%), 0.0869 and 0.0865 and 0.0893; in the test with Vibrio vulnificus [6] (detergent 5%) it was 0.1477 and 0.1578 and 0.1677.
In the case of Triton X-100, the Optical density with Esherichia coli O157 (detergent 0.1%) was 0.8888 and 0.8930 and 0.8848; in the test on Esherichia coli O157 (detergent 1%), 0.9722 and 0.9715 and 0.9720; in the test on Esherichia coli O157 (detergent 2%) it was 0.9793 and 0.9819 and 0.9767; in the test with Esherichia coli O157 (detergent 3%) it was 0.9052 and 0.9049 and 0.9035; in the test on Esherichia coli O157 (detergent 5%) it was 0.9238 and 0.9183 and 0.9254; in the test on Listeria monocytogenes (detergent 0.1%), 0.7013 and 0.7077 and 0.7059. Moreover, the Optical density was 0.7398 and 0.7403 and 0.7414 with Listeria monocytogenes (detergent 0.5%); 0.6622 and 0.6765 and 0.6766 in the test on Listeria monocytogenes (detergent 1%); 0.7014 and 0.7164 and 0.7099 in the test with Listeria monocytogenes (detergent 2%); 0.6407 and 0.6609 and 0.6608 in the test on Listeria monocytogenes (detergent 3%); 0.6213 and 0.6340 and 0.6310 in the test on Listeria monocytogenes (detergent 5%); 1.1248 and 1.1255 and 1.1291 with Staphylococcus aureus [4] (detergent 0.1%). The Optical density with Staphylococcus aureus [4] (detergent 1%) is 1.2024 and 1.2028 and 1.2027; in the test on Staphylococcus aureus [4] (detergent 2%) it was 1.2247 and 1.2245 and 1.2231; with Staphylococcus aureus [4] (detergent 3%) it was 1.1855 and 1.1810 and 1.1826; in the test on Staphylococcus aureus [4] (detergent 5%) it was 1.2147 and 1.2108 and 1.2034; in the test on Salmonella spp. [5] (detergent 0.1%), 1.0968 and 1.0927 and 1.0890; in the test with Salmonella spp. [5] (detergent 0.5%) it was 1.0965 and 1.0899 and 1.1089. In addition, the Optical density is 0.8827 and 0.8879 and 0.8963 in the test with Salmonella spp. [5] (detergent 1%); 0.9457 and 0.9452 and 0.9464 with Salmonella spp. [5] (detergent 2%); 0.8287 and 0.8303 and 0.8231 with Salmonella spp. [5] (detergent 3%); 0.8258 and 0.8240 and 0.8249 with Salmonella spp. [5] (detergent 5%); 0.3916 and 0.3935 and 0.3923 with Vibrio vulnificus [6] (detergent 0.1%); 0.3421 and 0.3417 and 0.3437 in the test with Vibrio vulnificus [6] (detergent 0.5%). The Optical density with Vibrio vulnificus [6] (detergent 1%) was 0.2844 and 0.2794 and 0.2801; with Vibrio vulnificus [6] (detergent 2%), 0.3044 and 0.3089 and 0.3046; with Vibrio vulnificus [6] (detergent 3%) it was 0.2947 and 0.2950 and 0.2966; in the test with Vibrio vulnificus [6] (detergent 5%), 0.2499 and 0.2478 and 0.2431.
Consider “5-bromo-4-chloro-3-indoxyl-alpha-D-glucopyranoside [X-alpha-glucospyranoside]”, for which, in the test with Vibrio vulnificus [1], the coloring reaction entry was “unique coloring reaction”.
As to `CCCCCCCCCCCCCCCC[N+](C)(C)CCCS(=O)(=O)[O-]` [SB3-16, 3-(Hexadecyldimethylammonio)propane-1-sulfonate], the Optical density with Esherichia coli O157 (detergent 0.1%) is 0.9950 and 1.0011 and 0.9956; in the test on Esherichia coli O157 (detergent 0.5%), 1.0314 and 1.0172 and 1.0085; in the test on Esherichia coli O157 (detergent 1%), 0.8049 and 0.7896 and 0.7856; in the test on Esherichia coli O157 (detergent 2%) it was 0.8432 and 0.8338 and 0.8284; in the test on Esherichia coli O157 (detergent 3%) it was 0.8710 and 0.8653 and 0.8610; with Esherichia coli O157 (detergent 5%), 0.9536 and 0.9258 and 0.9244. For the same compound, the Optical density in the test on Listeria monocytogenes (detergent 0.1%) is 0.7770 and 0.8027 and 0.8073; in the test on Listeria monocytogenes (detergent 0.5%), 0.7764 and 0.7530 and 0.7657; in the test on Listeria monocytogenes (detergent 1%), 0.8133 and 0.8142 and 0.8238; in the test with Listeria monocytogenes (detergent 2%), 0.7546 and 0.7725 and 0.7891; in the test on Listeria monocytogenes (detergent 3%), 0.7213 and 0.7797 and 0.7969; in the test on Listeria monocytogenes (detergent 5%) it was 0.6344 and 0.6340 and 0.6042. Also, the Optical density in the test with Staphylococcus aureus [4] (detergent 0.1%) is 1.0492 and 1.0472 and 1.0449; in the test on Staphylococcus aureus [4] (detergent 1%), 1.1763 and 1.1734 and 1.1719; in the test on Staphylococcus aureus [4] (detergent 2%) it was 1.0764 and 1.0741 and 1.0744; in the test with Staphylococcus aureus [4] (detergent 3%), 1.0675 and 1.0649 and 1.0654; in the test on Staphylococcus aureus [4] (detergent 5%) it was 1.0721 and 1.0700 and 1.0711; with Salmonella spp. [5] (detergent 0.1%) it was 0.6487 and 0.6399 and 0.6538. In addition, the Optical density was 0.7598 and 0.7515 and 0.7651 in the test with Salmonella spp. [5] (detergent 0.5%); 0.4932 and 0.4918 and 0.4892 with Salmonella spp. [5] (detergent 1%); 0.4688 and 0.4680 and 0.4676 in the test with Salmonella spp. [5] (detergent 2%); 0.4487 and 0.4508 and 0.4516 in the test with Salmonella spp. [5] (detergent 3%); 0.4594 and 0.4580 and 0.4632 in the test on Salmonella spp. [5] (detergent 5%); 0.1196 and 0.1210 and 0.1170 with Vibrio vulnificus [6] (detergent 0.1%). Further, the Optical density with Vibrio vulnificus [6] (detergent 0.5%) was 0.0680 and 0.0627 and 0.0656; in the test with Vibrio vulnificus [6] (detergent 1%) it was 0.0553 and 0.0506 and 0.0521; in the test with Vibrio vulnificus [6] (detergent 2%), 0.0399 and 0.0421 and 0.0383; with Vibrio vulnificus [6] (detergent 3%), 0.0395 and 0.0407 and 0.0453; in the test on Vibrio vulnificus [6] (detergent 5%), 0.0324 and 0.0317 and 0.0323.
Consider “5-Bromo-6-chloro-3-indolyl-beta-D-glucopyranoside [Magenta-beta-glucopyranoside]”, for which the coloring reaction entry in the test with Vibrio vulnificus [1] is listed as “unique coloring reaction”.
Regarding `CCCCCCCC(=O)Oc1c[nH]c2cc(Cl)c(Br)cc12` [Magenta-caprylate, 5-Bromo-6-chloro-3-indoxyl caprylate], the coloring reaction result with Salmonella spp. [2] was “higher intensity and speed”; with Staphylococcus aureus [3] it was “showed coloring reaction”.
